Measurements published in PubChem BioAssay AID256 (DTP/NCI, 2004).
Several values for one entry are separate records, joined by “and”; a condition that tells them apart may be missing. Identical values can stand only once. Inconclusive results and toxic doses are left out. Rule for the calls: active = survival T/C of 150% or more; inactive = T/C below 125% in these data.

System: CD2F1 mice, L1210 leukemia ip, survival T/C
Assay: NCI In Vivo Anticancer Drug Screen. Data for tumor model L1210 Leukemia (intraperitoneal) in CD2F1 (CDF1) mice
Details: higher = longer survival
Summary of the method: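 Activity against a transplanted murine tumor was judged by comparing the compound group with a vehicle group. The outcome in the treated animals was divided by that in the controls.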

[1] = endpoint: mean survival time, dose: 100.0 mg/kg/injection, schedule: Q01DX001 (ip), vehicle: saline with Tween-80
[2] = endpoint: mean survival time, dose: 100.0 mg/kg/injection, schedule: Q01DX009 (ip), vehicle: other
[3] = endpoint: mean survival time, dose: 200.0 mg/kg/injection, schedule: Q01DX009 (ip), vehicle: other
[4] = endpoint: mean survival time, dose: 200.0 mg/kg/injection, schedule: Q01DX001 (ip), vehicle: saline with Tween-80
[5] = endpoint: mean survival time, dose: 400.0 mg/kg/injection, schedule: Q01DX001 (ip), vehicle: saline with Tween-80
[6] = endpoint: mean survival time, dose: 100.0 mg/kg/injection, schedule: Q01DX009 (ip), vehicle: saline with Tween-80
[7] = endpoint: mean survival time, dose: 200.0 mg/kg/injection, schedule: Q01DX009 (ip), vehicle: saline with Tween-80
[8] = endpoint: mean survival time, dose: 400.0 mg/kg/injection, schedule: Q01DX009 (ip), vehicle: saline with Tween-80
[9] = endpoint: mean survival time, dose: 100.0 mg/kg/injection, schedule: Q01DX001 (ip), vehicle: saline
[10] = endpoint: mean survival time, dose: 200.0 mg/kg/injection, schedule: Q01DX001 (ip), vehicle: saline
[11] = endpoint: mean survival time, dose: 400.0 mg/kg/injection, schedule: Q01DX001 (ip), vehicle: saline
[12] = endpoint: mean survival time, dose: 100.0 mg/kg/injection, schedule: Q04DX002 (ip), vehicle: saline
[13] = endpoint: mean survival time, dose: 100.0 mg/kg/injection, schedule: Q04DX003 (ip), vehicle: saline

Measured: T/C

CN(Cc1cnc2nc(N)nc(N)c2n1)c1ccc(C(=O)N[C@@H](CCC(=O)O)C(N)=O)cc1
inactive: endpoint: mean survival time, dose: 3.0 mg/kg/injection, schedule: Q01DX009 (ip), vehicle: sodium bicarbonate 98 % of control | endpoint: mean survival time, dose: 6.0 mg/kg/injection, schedule: Q01DX009 (ip), vehicle: sodium bicarbonate 100 % of control | endpoint: mean survival time, dose: 12.0 mg/kg/injection, schedule: Q01DX009 (ip), vehicle: sodium bicarbonate 111 % of control | endpoint: mean survival time, dose: 50.0 mg/kg/injection, schedule: Q01DX009 (ip), vehicle: sodium bicarbonate 114 % of control

CCCCNC(=O)C1CC2c3c(Br)ccc4c3C(CC2N(C)C1)CN4C(C)=O (stereo unspecified)
inactive: endpoint: mean survival time, dose: 50.0 mg/kg/injection, schedule: Q04DX003 (ip), vehicle: saline with Tween-80 86 % of control | endpoint: mean survival time, dose: 200.0 mg/kg/injection, schedule: Q04DX003 (ip), vehicle: saline with Tween-80 91 % of control

CC(=O)Nc1ccc(SC(=O)N(C)C)cc1
inactive: endpoint: mean survival time, dose: 100.0 mg/kg/injection, schedule: Q04DX003 (ip), vehicle: saline with Tween-80 92 % of control

N=c1sc2ccccc2n1CC(=O)O
inactive: [1] 100 % of control

CC(C)OC(=O)Nc1cc(F)ccc1F
inactive: [2] 97 % of control | [3] 94 % of control

CC(C)=NNc1cc(N)nc2c1ncn2C1OC(CO)C(O)C1O (stereo unspecified)
inactive: endpoint: mean survival time, dose: 50.0 mg/kg/injection, schedule: Q01DX005 (ip), vehicle: water 90 % of control | endpoint: mean survival time, dose: 100.0 mg/kg/injection, schedule: Q01DX005 (ip), vehicle: water 94 % of control | endpoint: mean survival time, dose: 200.0 mg/kg/injection, schedule: Q01DX005 (ip), vehicle: water 104 % of control

CC(C)C(Nc1sc([N+](=O)[O-])cc1[N+](=O)[O-])C(=O)O (stereo unspecified)
inactive: [1] 90 % of control | [4] 102 % of control | [5] 107 % of control

CC(=O)Nc1ccc(/C=N/NC(=O)COc2ccccc2)cc1
inactive: [6] 97 % of control | [7] 94 % of control | [8] 94 % of control

N#CC(=C1CCN(Cc2ccccc2)CC1)c1ccccc1
inactive: endpoint: median survival time, dose: 50.0 mg/kg/injection, schedule: Q04DX002 (ip), vehicle: saline with Tween-80 100 % of control | endpoint: median survival time, dose: 100.0 mg/kg/injection, schedule: Q04DX002 (ip), vehicle: saline with Tween-80 100 % of control | endpoint: median survival time, dose: 200.0 mg/kg/injection, schedule: Q04DX002 (ip), vehicle: saline with Tween-80 111 % of control

NC(=O)C1C=CN(Cc2ccccc2)C=C1
inactive: endpoint: median survival time, dose: 30.0 mg/kg/injection, schedule: Q01DX005 (ip), vehicle: saline with Tween-80 100 % of control | endpoint: median survival time, dose: 60.0 mg/kg/injection, schedule: Q01DX005 (ip), vehicle: saline with Tween-80 107 % of control | endpoint: median survival time, dose: 120.0 mg/kg/injection, schedule: Q01DX005 (ip), vehicle: saline with Tween-80 111 % of control

CS/C(N)=N\C(=O)N(C)C
inactive: [6] 98 % of control | [7] 110 % of control | [8] 103 % of control

CCOc1cccc(Cc2cn(Cc3cccc(NC(=O)Nc4cccc(S(=O)(=O)F)c4)c3)c(=O)[nH]c2=O)c1
inactive: [1] 95 % of control | [4] 95 % of control | [5] 94 % of control

CCOC(=O)C(=C=[N-])[n+]1ccc(C)cc1
inactive: endpoint: mean survival time, dose: 6.25 mg/kg/injection, schedule: Q01DX001 (ip), vehicle: saline sonified 101 % of control | endpoint: mean survival time, dose: 6.25 mg/kg/injection, schedule: Q01DX009 (ip), vehicle: saline sonified 94 % of control | endpoint: mean survival time, dose: 12.5 mg/kg/injection, schedule: Q01DX001 (ip), vehicle: saline sonified 103 % of control | endpoint: mean survival time, dose: 12.5 mg/kg/injection, schedule: Q01DX009 (ip), vehicle: saline sonified 94 % of control | endpoint: mean survival time, dose: 25.0 mg/kg/injection, schedule: Q01DX001 (ip), vehicle: saline sonified 103 % of control | endpoint: mean survival time, dose: 25.0 mg/kg/injection, schedule: Q01DX009 (ip), vehicle: saline sonified 89 % of control

Cc1ccc2nc(-c3ccc(NC(=O)c4ccc(C(=O)Nc5ccc(-c6nc7ccc(C)cc7s6)cc5)cc4)cc3)sc2c1
inactive: [9] 89 % of control | [10] 89 % of control | [11] 86 % of control

CN(C)C=O
inactive: endpoint: mean survival time, dose: 25.0 mg/kg/injection, schedule: Q01DX009 (ip), vehicle: saline 101 % of control | endpoint: mean survival time, dose: 50.0 mg/kg/injection, schedule: Q01DX009 (ip), vehicle: saline 97 % of control | endpoint: mean survival time, dose: 100.0 mg/kg/injection, schedule: Q01DX009 (ip), vehicle: saline 101 % of control | [12] 111 % of control | endpoint: mean survival time, dose: 200.0 mg/kg/injection, schedule: Q01DX009 (ip), vehicle: saline 100 % of control | endpoint: mean survival time, dose: 200.0 mg/kg/injection, schedule: Q04DX002 (ip), vehicle: saline 96 % of control | endpoint: mean survival time, dose: 400.0 mg/kg/injection, schedule: Q01DX009 (ip), vehicle: saline 109 % of control | endpoint: mean survival time, dose: 400.0 mg/kg/injection, schedule: Q04DX002 (ip), vehicle: saline 111 % of control | endpoint: mean survival time, dose: 800.0 mg/kg/injection, schedule: Q01DX009 (ip), vehicle: saline 106 % of control | endpoint: mean survival time, dose: 1600.0 mg/kg/injection, schedule: Q01DX009 (ip), vehicle: saline 105 % of control

CCC(C)(O)C(C)N(C)C1CCCCC1 (stereo unspecified)
inactive: [13] 97 % of control and 100 % of control | endpoint: mean survival time, dose: 200.0 mg/kg/injection, schedule: Q04DX003 (ip), vehicle: saline 100 % of control and 97 % of control

CC(=O)N/N=C\C1=CCC=C(Br)S1
inactive: endpoint: mean survival time, dose: 50.0 mg/kg/injection, schedule: Q01DX009 (ip), vehicle: saline with Tween-80 107 % of control | [1] 93 % of control | [6] 107 % of control | [4] 102 % of control | [7] 116 % of control

CC(C)=NC(=O)NO.[Cl][Co][Cl]
inactive: endpoint: mean survival time, dose: 50.0 mg/kg/injection, schedule: Q04DX003 (ip), vehicle: saline 109 % of control | endpoint: mean survival time, dose: 75.0 mg/kg/injection, schedule: Q04DX003 (ip), vehicle: saline 113 % of control | [13] 100 % of control | endpoint: mean survival time, dose: 125.0 mg/kg/injection, schedule: Q04DX003 (ip), vehicle: saline 113 % of control

Cc1cccc(CN(C)C)n1
inactive: [12] 105 % of control

COc1cccc2c1CCC13OC(O)CC21CCCC3C#N (stereo unspecified)
inactive: [9] 95 % of control | [10] 95 % of control | [11] 90 % of control

N\C([S-])=N/N=C\C(=N/N=C(\N)[S-])C(O)C(O)C(O)CO.[Fe+2] (stereo unspecified)
inactive: endpoint: mean survival time, dose: 100.0 mg/kg/injection, schedule: Q01DX009 (ip), vehicle: saline sonified 91 % of control | endpoint: mean survival time, dose: 200.0 mg/kg/injection, schedule: Q01DX009 (ip), vehicle: saline sonified 92 % of control

Cc1cc(OC(=O)Nc2cccc(Cl)c2Cl)ccc1Cl
inactive: [2] 101 % of control | [3] 103 % of control | endpoint: mean survival time, dose: 400.0 mg/kg/injection, schedule: Q01DX009 (ip), vehicle: other 106 % of control

Cc1ccc(S(=O)(=O)OCC2OCOC(C(O)CI)C2O)cc1 (stereo unspecified)
inactive: [1] 92 % of control | [4] 92 % of control | [5] 102 % of control

COC(=O)CCCCC(C)=O
inactive: [6] 101 % of control | endpoint: mean survival time, dose: 100.0 mg/kg/injection, schedule: Q04DX003 (ip), vehicle: saline sonified 98 % of control | [7] 101 % of control | endpoint: mean survival time, dose: 200.0 mg/kg/injection, schedule: Q04DX003 (ip), vehicle: saline sonified 98 % of control | [8] 98 % of control | endpoint: mean survival time, dose: 400.0 mg/kg/injection, schedule: Q04DX003 (ip), vehicle: saline sonified 102 % of control

CCCCCCCCCCCCCCn1cnc2c(Cl)ncnc21
inactive: endpoint: mean survival time, dose: 12.5 mg/kg/injection, schedule: Q01DX005 (ip), vehicle: other 105 % of control | endpoint: mean survival time, dose: 25.0 mg/kg/injection, schedule: Q01DX005 (ip), vehicle: other 97 % of control | endpoint: mean survival time, dose: 50.0 mg/kg/injection, schedule: Q01DX005 (ip), vehicle: other 94 % of control | endpoint: mean survival time, dose: 100.0 mg/kg/injection, schedule: Q01DX005 (ip), vehicle: other 97 % of control | endpoint: mean survival time, dose: 200.0 mg/kg/injection, schedule: Q01DX005 (ip), vehicle: other 102 % of control

CCCC(=O)O.CCCC(=O)O.CCCC(=O)O.CCCC(=O)O.O=P1(N(CCCl)CCCl)NCCCO1.O=P1(N(CCCl)CCCl)NCCCO1.[Rh].[Rh] (stereo unspecified)
inactive: endpoint: median survival time, dose: 0.13 mg/kg/injection, schedule: Q01DX001 (ip), vehicle: olive oil, sesame oil, peanut oil 101 % of control | endpoint: median survival time, dose: 0.25 mg/kg/injection, schedule: Q01DX001 (ip), vehicle: olive oil, sesame oil, peanut oil 102 % of control | endpoint: median survival time, dose: 0.5 mg/kg/injection, schedule: Q01DX001 (ip), vehicle: olive oil, sesame oil, peanut oil 103 % of control | endpoint: median survival time, dose: 1.0 mg/kg/injection, schedule: Q01DX001 (ip), vehicle: olive oil, sesame oil, peanut oil 95 % of control | endpoint: median survival time, dose: 2.0 mg/kg/injection, schedule: Q01DX001 (ip), vehicle: olive oil, sesame oil, peanut oil 102 % of control

COc1c(NC(C)=O)cc2c(c1C)OC(C)(C)C=C2
inactive: [6] 101 % of control | [7] 98 % of control
